From article PMC6445226, “Kinetic study on the inhibition of xanthine oxidase by acylated derivatives of flavonoids synthesised enzymatically” (Journal of Enzyme Inhibition and Medicinal Chemistry, 2017)
Where two headings read alike, the source gives them in different places.

Experiments:
[1] = Partition coefficient determination in octanol/water (k); format: physicochemical; details: octan-1-ol/water, 50 μM sample, UHPLC-MS; SD <0.01
Procedure: The partition coefficients of the untreated flavonoids in octanol/water (k) were analysed to determine their degrees of lipophilicity. In test tubes, 2.0 ml of a solution of the sample with a concentration of 50 μM were added to 2.0 ml of octanol saturated with water. The mixture was shaken for 1 min and then centrifuged for 15 min at 3000 rpm. […] The partition coefficient was obtained using the equation: k=Co/Ca×r; where Co = test compound concentration in octanol, Ca = test compound concentration in aqueous solution, r = ratio of the volumes of the oily and the aqueous phases.

[2] = target: T1, xanthine oxidase from bovine milk (Bos taurus, UniProt P80457); experiment: Inhibition of xanthine oxidase (XO) activity, uric acid formed from xanthine, absorbance at 290 nm; format: biochemical; details: for IC50: value of x when y = 50 from straight line equation of XOI % vs concentration; for inhibition at 45 µM: read-out: Xanthine oxidase inhibition (XOI %)
T1 construct: xanthine oxidase from bovine milk; purchased Sigma-Aldrich Chemical Co., St. Louis, MO; host or cells: bovine milk (natural source)
T1 sequence (P80457 whole entry): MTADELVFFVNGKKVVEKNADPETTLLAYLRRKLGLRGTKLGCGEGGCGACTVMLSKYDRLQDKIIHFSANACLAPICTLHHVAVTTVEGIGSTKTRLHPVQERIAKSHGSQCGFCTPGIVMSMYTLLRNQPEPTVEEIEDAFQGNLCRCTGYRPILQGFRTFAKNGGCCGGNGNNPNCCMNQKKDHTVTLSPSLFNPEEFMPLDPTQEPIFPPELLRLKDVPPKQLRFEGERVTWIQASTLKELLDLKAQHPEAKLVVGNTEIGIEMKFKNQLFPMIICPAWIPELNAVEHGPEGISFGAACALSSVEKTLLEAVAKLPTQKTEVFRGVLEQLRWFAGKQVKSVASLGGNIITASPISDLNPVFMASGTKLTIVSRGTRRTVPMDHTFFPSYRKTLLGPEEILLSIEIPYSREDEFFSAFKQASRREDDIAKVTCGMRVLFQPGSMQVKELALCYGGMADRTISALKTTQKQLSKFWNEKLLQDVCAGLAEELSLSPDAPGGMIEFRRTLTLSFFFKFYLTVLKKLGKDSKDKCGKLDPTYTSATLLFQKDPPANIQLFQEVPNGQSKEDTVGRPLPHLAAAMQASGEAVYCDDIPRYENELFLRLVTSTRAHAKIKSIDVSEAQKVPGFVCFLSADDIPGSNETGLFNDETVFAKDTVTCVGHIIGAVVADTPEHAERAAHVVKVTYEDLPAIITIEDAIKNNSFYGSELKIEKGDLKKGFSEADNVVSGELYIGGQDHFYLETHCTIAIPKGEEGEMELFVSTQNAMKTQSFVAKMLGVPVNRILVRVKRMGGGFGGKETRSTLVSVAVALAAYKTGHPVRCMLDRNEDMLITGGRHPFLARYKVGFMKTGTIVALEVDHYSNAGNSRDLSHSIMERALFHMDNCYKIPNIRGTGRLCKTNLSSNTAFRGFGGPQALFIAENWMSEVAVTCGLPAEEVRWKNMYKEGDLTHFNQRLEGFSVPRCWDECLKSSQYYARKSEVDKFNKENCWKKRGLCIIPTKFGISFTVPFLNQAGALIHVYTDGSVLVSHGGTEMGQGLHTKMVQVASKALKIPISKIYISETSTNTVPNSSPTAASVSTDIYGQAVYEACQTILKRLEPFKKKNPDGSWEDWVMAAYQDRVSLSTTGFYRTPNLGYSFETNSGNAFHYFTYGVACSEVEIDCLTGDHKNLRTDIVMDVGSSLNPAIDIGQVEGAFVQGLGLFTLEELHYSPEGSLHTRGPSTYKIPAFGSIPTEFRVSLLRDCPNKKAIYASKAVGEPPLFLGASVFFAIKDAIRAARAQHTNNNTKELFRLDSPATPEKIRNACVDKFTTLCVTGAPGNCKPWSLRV
Procedure: Inhibition of XO activity was assessed by measuring the uric acid formed from the xanthine substrate. Solutions of xanthine in various concentrations in a 0.1 M, pH 7.4 phosphate buffer were incubated together with 100 μl of ethanol and the same volume of samples of the solutions with different concentrations (45 and 90 μM in a 0.1 M, pH 7.4 phosphate buffer). The samples were pre-incubated at 37 °C for 10 min. The XO solution (0.3 ml, 0.1 U/ml) was added to the reaction mixture and the flasks were incubated at 37 °C for 20 min. The enzymatic reaction was interrupted by adding 25 μl of 3.2% HCl. The absorption of the samples was measured using an ELISA reader Epoch, BioTek (Winooski, VT) at 290 nm. The uric acid production was calculated from the differential absorbance with a blank solution without xanthine oxidase. The control was a solution containing xanthine and XO.
Vmax (maximum reaction rate) and Km (Michaelis–Menten constant, that is the substrate concentration at 1/2 the maximum reaction rate) were calculated and the type of inhibition kinetics was identified using the Origin 8.6 program and the rectangular hyperbola model. […] Reaction rate (expressed as uric acid concentration in μmol/min) was obtained from the uric acid standard curve (y = 0.024x − 0.1242, R^2 = 0.9786).

XO [3] = test system: XO; design: method as in earlier work; details: XO inhibition; cited from earlier work
XO [4] = test system: XO; design: method as in PMID 12231379; details: XO inhibition; cited from earlier work
[5] = inhibitor at 45 μM, 250 μM of xanthine substrate, derivatives after 12 h of enzymatic acylation

Row | Molecule | Partition coefficient (k) [1] | Xanthine oxidase inhibition (XOI %) [2, 5] [%] | IC50 [2] [µM] | further results
1 | COc1ccc([C@@H]2CC(=O)c3c(O)cc(O[C@@H]4O[C@H](CO[C@@H]5O[C@@H](C)[C@H](O)[C@@H](O)[C@H]5O)[C@@H](O)[C@H](O)[C@H]4O)cc3O2)cc1O [Hesperidin, hesperidin] | 0.42 | 8.24 ± 2.10 | 333 | –
2 | isoquercitrin stearate | – | – | – | IC50 (XO [3]): 61 µM
3 | Oc1ncnc2[nH]ncc12 [Allopurinol, allopurinol] | – | – | – | inhibition at 45 µM [2]: 89.7%
4 | C[C@@H]1O[C@@H](O[C@H]2[C@H](Oc3cc(O)c4c(c3)O[C@H](c3ccc(O)cc3)CC4=O)O[C@H](CO)[C@@H](O)[C@@H]2O)[C@H](O)[C@H](O)[C@H]1O [Naringin, naringin] | 0.37 | – | 206 | inhibition at 45 µM [2, 5]: 14.8 ± 4.8%
5 | Naringin decanoate | 0.86 | 25.61 ± 2.85 | 118 | –
6 | Hesperidin decanoate | 0.83 | 16.42 ± 3.21 | 199 | –
7 | C[C@@H]1O[C@@H](OC[C@H]2O[C@@H](Oc3c(-c4ccc(O)c(O)c4)oc4cc(O)cc(O)c4c3=O)[C@H](O)[C@@H](O)[C@@H]2O)[C@H](O)[C@H](O)[C@H]1O [Rutin, rutin] | 0.48 | – | – | –
8 | O=c1c(O)c(-c2ccc(O)c(O)c2)oc2cc(O)cc(O)c12 [Quercetin, quercetin] | 1.46 | – | – | –
9 | isoquercitrin oleate | – | – | – | IC50 (XO [3]): 27 µM
10 | O=c1c(O)c(-c2ccc(O)cc2O)oc2cc(O)cc(O)c12 [morin] | – | – | – | IC50 (XO [4]): 40 µM
11 | isoquercitrin butyrate | – | – | – | IC50 (XO [3]): 144 µM
12 | Naringin octanoate | – | 28.80 ± 5.76 | 110 | –
13 | O=c1c(O)c(-c2ccc(O)cc2)oc2cc(O)cc(O)c12 [kaempferol] | – | – | – | IC50 (XO [4]): 2.5 µM
